Laboratory results as given in PubChem BioAssay AID330 (DTP/NCI, 2004).
Toxic doses and inconclusive results are not listed.

Test system: P388 leukemia ip, CD2F1 mice, survival T/C
Assay: NCI In Vivo Anticancer Drug Screen. Data for tumor model P388 Leukemia (intraperitoneal) in CD2F1 (CDF1) mice
Conditions: endpoint: median survival time, higher = longer survival
Method in brief: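 Mice carrying the transplanted tumor received test compound or vehicle. Survival was recorded in each group, and the value is the treated-group measurement divided by that of the vehicle-treated control group.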

[1] = dose: 50.0 mg/kg/injection, schedule: Q01DX009 (ip), vehicle: saline
[2] = dose: 100.0 mg/kg/injection, schedule: Q01DX009 (ip), vehicle: saline
[3] = dose: 50.0 mg/kg/injection, schedule: Q01DX005 (ip), vehicle: Klucel (hydroxypropylcellulose) (HPC)
[4] = dose: 100.0 mg/kg/injection, schedule: Q01DX005 (ip), vehicle: Klucel (hydroxypropylcellulose) (HPC)
[5] = dose: 200.0 mg/kg/injection, schedule: Q01DX005 (ip), vehicle: Klucel (hydroxypropylcellulose) (HPC)
[6] = dose: 100.0 mg/kg/injection, schedule: Q04DX003 (ip), vehicle: saline
[7] = dose: 200.0 mg/kg/injection, schedule: Q04DX003 (ip), vehicle: saline

CCOC(=O)c1ccc(NC(=O)Nc2scc[n+]2C)cc1
T/C (dose: 12.5 mg/kg/injection, schedule: Q01DX009 (ip), vehicle: distilled water + Tween-80): 93 % of control | T/C (dose: 25.0 mg/kg/injection, schedule: Q01DX009 (ip), vehicle: distilled water + Tween-80): 102 % of control | T/C (dose: 50.0 mg/kg/injection, schedule: Q01DX009 (ip), vehicle: distilled water + Tween-80): 108 % of control | T/C (dose: 100.0 mg/kg/injection, schedule: Q01DX009 (ip), vehicle: distilled water + Tween-80): 100 % of control | T/C (dose: 200.0 mg/kg/injection, schedule: Q01DX009 (ip), vehicle: distilled water + Tween-80): 90 % of control

COC(=N)CCSSCCC(=N)OC
T/C (dose: 25.0 mg/kg/injection, schedule: Q01DX009 (ip), vehicle: saline): 102 % of control | T/C [1]: 105 % of control | T/C [2]: 106 % of control | T/C (dose: 100.0 mg/kg/injection, schedule: Q01DX009 (ip), vehicle: suspension in saline): 101 % of control

C=CCOc1ccncc1
T/C (dose: 12.5 mg/kg/injection, schedule: Q01DX009 (ip), vehicle: saline with Tween-80): 100 % of control | T/C (dose: 25.0 mg/kg/injection, schedule: Q01DX009 (ip), vehicle: saline with Tween-80): 95 % of control | T/C (dose: 50.0 mg/kg/injection, schedule: Q01DX009 (ip), vehicle: saline with Tween-80): 90 % of control

COc1ccc(-c2cc(-c3ccccc3)cc(-c3ccc(OC)cc3)n2)cc1
T/C [3]: 98 % of control | T/C [4]: 94 % of control | T/C [5]: 92 % of control

N#CC1C(=O)NC(=O)C(C#N)C1c1ccc(C2C(C#N)C(=O)NC(=O)C2C#N)cc1 (stereo not given)
T/C (dose: 50.0 mg/kg/injection, schedule: Q01DX009 (ip), vehicle: Klucel (hydroxypropylcellulose) (HPC)): 105 % of control | T/C (dose: 100.0 mg/kg/injection, schedule: Q01DX009 (ip), vehicle: Klucel (hydroxypropylcellulose) (HPC)): 100 % of control | T/C (dose: 200.0 mg/kg/injection, schedule: Q01DX009 (ip), vehicle: Klucel (hydroxypropylcellulose) (HPC)): 113 % of control

O=[N+]([O-])c1cnc(/C=[N+](\[O-])CCO)n1CCO
T/C [1]: 99 % of control | T/C [2]: 90 % of control | T/C (dose: 200.0 mg/kg/injection, schedule: Q01DX009 (ip), vehicle: saline): 106 % of control

CC1CC(=O)CCC2(C)C(OC(C)(C)C)CCC12 (stereo not given)
T/C [3]: 100 % of control | T/C [4]: 99 % of control | T/C [5]: 99 % of control

C[N+](C)(C)NP(=O)(N[N+](C)(C)C)c1ccccc1
T/C (dose: 60.0 mg/kg/injection, schedule: Q01DX005 (ip), vehicle: saline): 100 % of control | T/C (dose: 120.0 mg/kg/injection, schedule: Q01DX005 (ip), vehicle: saline): 106 % of control | T/C (dose: 240.0 mg/kg/injection, schedule: Q01DX005 (ip), vehicle: saline): 100 % of control

O=C1c2c3c(c4c(c2C(=O)c2c5c(c6c(c21)CCCC6)CCCC5)CCCC4)CCCC3
T/C (dose: 7.5 mg/kg/injection, schedule: Q01DX009 (ip), vehicle: saline with Tween-80): 99 % of control | T/C (dose: 15.0 mg/kg/injection, schedule: Q01DX009 (ip), vehicle: saline with Tween-80): 98 % of control | T/C (dose: 30.0 mg/kg/injection, schedule: Q01DX009 (ip), vehicle: saline with Tween-80): 103 % of control

O=CNC(CSSCC(NC=O)C(=O)O)C(=O)O (stereo not given)
T/C [3]: 101 % of control | T/C [4]: 101 % of control | T/C (dose: 100.0 mg/kg/injection, schedule: Q04DX003 (ip), vehicle: saline with Tween-80): 113 % of control | T/C [5]: 95 % of control | T/C (dose: 200.0 mg/kg/injection, schedule: Q04DX003 (ip), vehicle: saline with Tween-80): 90 % of control | T/C (dose: 400.0 mg/kg/injection, schedule: Q04DX003 (ip), vehicle: saline with Tween-80): 90 % of control

CC1(COCCOCC2(C)CO2)CO1 (stereo not given)
T/C [2]: 118 % of control | T/C [6]: 100 % of control | T/C [7]: 113 % of control | T/C (dose: 400.0 mg/kg/injection, schedule: Q01DX009 (ip), vehicle: saline sonified): 177 % of control | T/C (dose: 400.0 mg/kg/injection, schedule: Q01DX009 (ip), vehicle: saline): 172 % of control | T/C (dose: 400.0 mg/kg/injection, schedule: Q04DX003 (ip), vehicle: saline): 109 % of control | T/C (dose: 600.0 mg/kg/injection, schedule: Q01DX009 (ip), vehicle: saline sonified): 200 % of control

CCC(C)(C)N=C(Nc1cccnc1)Nc1ncccn1
T/C [6]: 101 % of control | T/C [7]: 92 % of control
